Columns and labels:
[1] = system: Total ATXN3 (tATXN3) protein; assay: Endogenous Total ATXN3 (tATXN3) Protein Assay (MSD immunoassay of cell lysates); format: cell-based; conditions: average IC50, total ATXN3 protein in cell lysate after 48 h with compound (Table 1)
How it was run: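 By electrochemiluminescent MSD sandwich immunoassay (mouse monoclonal capture, rabbit monoclonal and SULFO-TAG anti-rabbit detection), endogenous ATXN3 was quantified in lysates of cells treated 48 h at 37° C at 10,000 cells/well. Treatment used a 7-point 3.16-fold duplicate dilution series, with average IC50 grouped into star categories.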

ATXN3 pre-mRNA = assay: RT-qPCR Assay to Quantify Exon 4 Skipping in ATXN3 pre-mRNA in Cells; format: cell-based; conditions: percent exon 4 skipping in ATXN3 pre-mRNA, RT-qPCR of cell lysates; average IC50
How it was run: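 IC50 derives from a dose-response fit of percent exon 4 skipping, quantified by RT-qPCR on crude lysates. Compounds tested as 7-point 3.16-fold dilutions in duplicate; cells (10,000/well) were exposed for 24 h at 37 °C before lysis.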

Structure (SMILES)	IC50 [1]	IC50 (ATXN3 pre-mRNA)
N[C@H]1CC=CC[C@@H]1c1sc2c(NCc3ccco3)nc(Cl)nc2c1Cl [Compound 170, 6-((1S,6S)-6-aminocyclohex-3-en-1-yl)-2,7-dichloro-N-(furan-2-ylmethyl)thieno[3,2-d]pyrimidin-4-amine]	≤ 30 nM	< 30 nM
N[C@H]1CC=CC[C@@H]1c1sc2c(NCc3ccco3)nc(Cl)nc2c1I [Compound 172, 6-((1S,6S)-6-aminocyclohex-3-en-1-yl)-2-chloro-N-(furan-2-ylmethyl)-7-iodothieno[3,2-d]pyrimidin-4-amine]	≤ 30 nM	≤ 30 nM
N[C@H]1CCCC[C@@H]1c1sc2c(NCc3ccco3)cc(Cl)nc2c1Cl [Compound 173, 2-((1S,2S)-2-aminocyclohexyl)-3,5-dichloro-N-(furan-2-ylmethyl)thieno[3,2-b]pyridin-7-amine]	≤ 30 nM	≤ 30 nM
N[C@H]1CCOC[C@@H]1c1sc2c(NCc3ccco3)cc(Cl)nc2c1Cl [Compound 174, 2-((3R,4S)-4-aminotetrahydro-2H-pyran-3-yl)-3,5-dichloro-N-(furan-2-ylmethyl)thieno[3,2-b]pyridin-7-amine]	≤ 30 nM	≤ 30 nM
N[C@H]1CC=CC[C@@H]1c1sc2c(NCc3cccs3)cc(Cl)nc2c1I [Compound 176, 2-((1S,6S)-6-aminocyclohex-3-en-1-yl)-5-chloro-3-iodo-N-(thiophen-2-ylmethyl)thieno[3,2-b]pyridin-7-amine]	≤ 30 nM	≤ 30 nM
N[C@H]1CC=CC[C@@H]1c1sc2c(NCc3nccs3)cc(Cl)nc2c1Cl [Compound 178, 2-((1S,6S)-6-aminocyclohex-3-en-1-yl)-3,5-dichloro-N-(thiazol-2-ylmethyl)thieno[3,2-b]pyridin-7-amine]	≤ 30 nM	≤ 30 nM
N[C@H]1CC=CC[C@@H]1c1sc2c(NCc3cccs3)nc(Cl)nc2c1I [Compound 182, 6-((1S,6S)-6-aminocyclohex-3-en-1-yl)-2-chloro-7-iodo-N-(thiophen-2-ylmethyl)thieno[3,2-d]pyrimidin-4-amine]	≤ 30 nM	≤ 30 nM
N[C@H]1CC=CC[C@@H]1c1sc2c(NCc3ccco3)cc(Cl)nc2c1I [Compound 188, 2-((1S,6S)-6-aminocyclohex-3-en-1-yl)-5-chloro-N-(furan-2-ylmethyl)-3-iodothieno[3,2-b]pyridin-7-amine]	≤ 30 nM	≤ 30 nM
N[C@H]1CC=CC[C@@H]1c1sc2c(NCc3ccccc3)cc(Cl)nc2c1I [Compound 190, 2-((1S,6S)-6-aminocyclohex-3-en-1-yl)-N-benzyl-5-chloro-3-iodothieno[3,2-b]pyridin-7-amine]	≤ 30 nM	≤ 30 nM
Cc1c([C@H]2CC=CC[C@@H]2N)sc2c(NCc3ccco3)nc(Cl)nc12 [Compound 193, 6-((1S,6S)-6-aminocyclohex-3-en-1-yl)-2-chloro-N-(furan-2-ylmethyl)-7-methylthieno[3,2-d]pyrimidin-4-amine]	≤ 30 nM	≤ 30 nM
N[C@H]1CC=CC[C@@H]1c1sc2c(NCc3ccccc3)cc(Cl)nc2c1Br [Compound 194, 2-((1S,6S)-6-aminocyclohex-3-en-1-yl)-N-benzyl-3-bromo-5-chlorothieno[3,2-b]pyridin-7-amine]	≤ 30 nM	≤ 30 nM
N[C@H]1CC=CC[C@@H]1c1sc2c(NCc3cccs3)cc(Cl)nc2c1Cl [Compound 196, 2-((1S,6S)-6-aminocyclohex-3-en-1-yl)-3,5-dichloro-N-(thiophen-2-ylmethyl)thieno[3,2-b]pyridin-7-amine]	≤ 30 nM	≤ 30 nM
N[C@H]1CC=CC[C@@H]1c1sc2c(NCc3ncco3)cc(Cl)nc2c1Cl [Compound 199, 2-((1S,6S)-6-aminocyclohex-3-en-1-yl)-3,5-dichloro-N-(oxazol-2-ylmethyl)thieno[3,2-b]pyridin-7-amine]	≤ 30 nM	≤ 30 nM
N[C@H]1CCCC(F)(F)[C@@H]1c1sc2c(NCc3ccco3)nc(Cl)nc2c1Br [Compound 201, 6-((1R,6S)-6-amino-2,2-difluorocyclohexyl)-7-bromo-2-chloro-N-(furan-2-ylmethyl)thieno[3,2-d]pyrimidin-4-amine]	≤ 30 nM	≤ 30 nM
CC#CCNc1cc(Cl)nc2c(I)c([C@H]3CC=CC[C@@H]3N)sc12 [Compound 202, 2-((1S,6S)-6-aminocyclohex-3-en-1-yl)-N-(but-2-yn-1-yl)-5-chloro-3-iodothieno[3,2-b]pyridin-7-amine]	≤ 30 nM	≤ 30 nM

Second part, the compound after the results:

IC50 [1]	IC50 (ATXN3 pre-mRNA)	Structure (SMILES)
≤ 30 nM	≤ 30 nM	N[C@H]1CC=CC[C@@H]1c1sc2c(NCc3ccco3)nc(Cl)nc2c1Br [Compound 168, 6-((1S,6S)-6-aminocyclohex-3-en-1-yl)-7-bromo-2-chloro-N-(furan-2-ylmethyl)thieno[3,2-d]pyrimidin-4-amine]
≤ 30 nM	≤ 30 nM	N[C@H]1CC=CC[C@@H]1c1sc2c(NCc3ccco3)cc(Cl)nc2c1Cl [Compound 169, 2-((1S,6S)-6-aminocyclohex-3-en-1-yl)-3,5-dichloro-N-(furan-2-ylmethyl)thieno[3,2-b]pyridin-7-amine]
≤ 30 nM	≤ 30 nM	N[C@H]1CCOC[C@@H]1c1sc2c(NCc3cccs3)cc(Cl)nc2c1Cl [Compound 179, 2-((3R,4S)-4-aminotetrahydro-2H-pyran-3-yl)-3,5-dichloro-N-(thiophen-2-ylmethyl)thieno[3,2-b]pyridin-7-amine]
≤ 30 nM	≤ 30 nM	Cc1c([C@H]2CC=CC[C@@H]2N)sc2c(NCc3ccco3)cc(Cl)nc12 [Compound 184, 2-((1S,6S)-6-aminocyclohex-3-en-1-yl)-5-chloro-N-(furan-2-ylmethyl)-3-methylthieno[3,2-b]pyridin-7-amine]
≤ 30 nM	≤ 30 nM	N[C@H]1CC=CC[C@@H]1c1sc2c(NCc3cccs3)cc(Cl)nc2c1Br [Compound 186, 2-((1S,6S)-6-aminocyclohex-3-en-1-yl)-3-bromo-5-chloro-N-(thiophen-2-ylmethyl)thieno[3,2-b]pyridin-7-amine]
≤ 30 nM	≤ 30 nM	[2H]C1=C([2H])C([2H])([2H])[C@H](c2sc3c(NCc4ccco4)nc(Cl)nc3c2C)[C@@H](N)C1([2H])[2H] [Compound 187, 6-((1S,6S)-6-aminocyclohex-3-en-1-yl-2,2,3,4,5,5-d6)-2-chloro-N-(furan-2-ylmethyl)-7-methylthieno[3,2-d]pyrimidin-4-amine]
≤ 30 nM	≤ 30 nM	N[C@H]1CC=CC[C@@H]1c1sc2c(NCc3cccs3)nc(Cl)nc2c1Br [Compound 191, 6-((1S,6S)-6-aminocyclohex-3-en-1-yl)-7-bromo-2-chloro-N-(thiophen-2-ylmethyl)thieno[3,2-d]pyrimidin-4-amine]
≤ 30 nM	≤ 30 nM	N[C@H]1CCCC[C@@H]1c1sc2c(NCc3ccncc3)cc(Cl)nc2c1Br [Compound 197, 2-((1S,2S)-2-aminocyclohexyl)-3-bromo-5-chloro-N-(pyridin-4-ylmethyl)thieno[3,2-b]pyridin-7-amine]
≤ 30 nM	≤ 30 nM	N[C@H]1CC=CC[C@@H]1c1sc2c(NCc3ccncc3)cc(Cl)nc2c1Br [Compound 198, 2-((1S,6S)-6-aminocyclohex-3-en-1-yl)-3-bromo-5-chloro-N-(pyridin-4-ylmethyl)thieno[3,2-b]pyridin-7-amine]

Reference: patent publication US20250382305A1 (PTC THERAPEUTICS, INC., priority 2022, published 2025)
